Data taken from patent publication US12084444B2, “Spiro-lactam NMDA modulators and methods of using same” (Tenacia Biotechnology (Hong Kong) Co., Limited, priority 2016, dated 2024).

Experiments:
Assay type in all cases: biochemical
[1] = biological target: T1, NMDAR2A expressing HEK cell membranes (Homo sapiens, UniProt Q05586+Q12879); assay: NMDAR agonist assay, [3H]MK-801 binding, NMDAR2A; design: key to NMDAR2A B: log EC50: 0=−; ≥1×10^−9 M (e.g., −8)=+; <1×10^−9 M (e.g., −10)=++; details: 50 μM glutamate; for Emax: 0.25 h, read-out: NMDAR2A A: % maximal [3H]MK-801 binding relative to 1 mM glycine; for EC50: read-out: NMDAR2A B: log EC50 (converted)
T1 construct: expressed in transfected cells; host or cells: HEK cells (membrane extract)
Experimental: (§1) Assays were conducted as described by Moskal et al., “GLYX-13: a monoclonal antibody-derived peptide that acts as an N-methyl-D-aspartate receptor modulator,” Neuropharmacology, 49, 1077-87, 2005. These studies were designed to determine if the test compounds act to facilitate NMDAR activation in NMDAR2A, NMDAR2B, NMDAR2C or NMDAR2D expressing HEK cell membranes as measured by increases in [^3H]MK-801 binding.
(§2) In the assay, 300 μg of NMDAR expressing HEK cell membrane extract protein was preincubated for 15 minutes at 25° C. in the presence of saturating concentrations of glutamate (50 μM) and varying concentrations of test compound (1×10^−15 M-1×10^−7 M), or 1 mM glycine. Following the addition of 0.3 μCi of [^3H]MK-801 (22.5 Ci/mmol), reactions were again incubated for 15 minutes at 25° C. (nonequilibrium conditions). Bound and free [^3H]MK-801 were separated via rapid filtration using a Brandel apparatus.
(§3) In analyzing the data, the DPM (disintegrations per minute) of [^3H]MK-801 remaining on the filter were measured for each concentration of test compound or for 1 mM glycine. The DPM values for each concentration of a ligand (N=2) were averaged. The baseline value was determined from the best fit curve of the DPM values modeled using the GraphPad program and the log(agonist) vs. response(three parameters) algorithm was then subtracted from all points in the dataset. The % maximal [^3H]MK-801 binding was then calculated relative to that of 1 mM glycine: all baseline subtracted DPM values were divided by the average value for 1 mM glycine. The EC50 and % maximal activity were then obtained from the best fit curve of the % maximal [^3H]MK-801 binding data modelled using the GraphPad program and the log(agonist) vs. response(three parameters) algorithm.
(§4) The tables below summarize the results for the wild type NMDAR agonists NMDAR2A, NMDAR2B, NMDAR2C, and NMDAR2D, and whether the compound is not an agonist (−), is an agonist (+), or is a strong agonist (++), where column A is based on the % maximal [^3H]MK-801 binding relative to 1 mM glycine (−=0; <100%=+; and >100%=++); and column B is based on log EC50 values (0=−; ≥1×10^−9 M (e.g., −8)=+; and <1×10^−9 M (e.g., −10)=++).

[2] = biological target: T2, NMDAR2A expressing HEK cell membranes (Homo sapiens, UniProt Q12879); assay: NMDAR agonist assay, [3H]MK-801 binding, NMDAR2A; design: key to NMDAR2A B: log EC50: 0=−; ≥1×10^−9 M (e.g., −8)=+; <1×10^−9 M (e.g., −10)=++; details: 50 μM glutamate; for EC50: read-out: NMDAR2A B: log EC50 (converted)
T2 construct: expressed in transfected cells; host or cells: HEK cells (membrane extract)
Experimental: as §1, §2, §3, §4

[3] = biological target: T3, NMDAR2B expressing HEK cell membranes (Homo sapiens, UniProt Q05586+Q13224); assay: NMDAR agonist assay, [3H]MK-801 binding, NMDAR2B; design: key to NMDAR2B B: log EC50: 0=−; ≥1×10^−9 M (e.g., −8)=+; <1×10^−9 M (e.g., −10)=++; details: 50 μM glutamate; for EC50: read-out: NMDAR2B B: log EC50 (converted); for Emax: 0.25 h, read-out: NMDAR2B A: % maximal [3H]MK-801 binding relative to 1 mM glycine
T3 construct: expressed in transfected cells; host or cells: HEK cells (membrane extract)
Experimental: as §1, §2, §3, §4

[4] = biological target: T4, NMDAR2B expressing HEK cell membranes (Homo sapiens, UniProt Q13224); assay: NMDAR agonist assay, [3H]MK-801 binding, NMDAR2B; design: key to NMDAR2B B: log EC50: 0=−; ≥1×10^−9 M (e.g., −8)=+; <1×10^−9 M (e.g., −10)=++; details: 50 μM glutamate; for EC50: read-out: NMDAR2B B: log EC50 (converted)
T4 construct: expressed in transfected cells; host or cells: HEK cells (membrane extract)
Experimental: as §1, §2, §3, §4

T1 sequence (Q12879 23-1464, other chains not shown): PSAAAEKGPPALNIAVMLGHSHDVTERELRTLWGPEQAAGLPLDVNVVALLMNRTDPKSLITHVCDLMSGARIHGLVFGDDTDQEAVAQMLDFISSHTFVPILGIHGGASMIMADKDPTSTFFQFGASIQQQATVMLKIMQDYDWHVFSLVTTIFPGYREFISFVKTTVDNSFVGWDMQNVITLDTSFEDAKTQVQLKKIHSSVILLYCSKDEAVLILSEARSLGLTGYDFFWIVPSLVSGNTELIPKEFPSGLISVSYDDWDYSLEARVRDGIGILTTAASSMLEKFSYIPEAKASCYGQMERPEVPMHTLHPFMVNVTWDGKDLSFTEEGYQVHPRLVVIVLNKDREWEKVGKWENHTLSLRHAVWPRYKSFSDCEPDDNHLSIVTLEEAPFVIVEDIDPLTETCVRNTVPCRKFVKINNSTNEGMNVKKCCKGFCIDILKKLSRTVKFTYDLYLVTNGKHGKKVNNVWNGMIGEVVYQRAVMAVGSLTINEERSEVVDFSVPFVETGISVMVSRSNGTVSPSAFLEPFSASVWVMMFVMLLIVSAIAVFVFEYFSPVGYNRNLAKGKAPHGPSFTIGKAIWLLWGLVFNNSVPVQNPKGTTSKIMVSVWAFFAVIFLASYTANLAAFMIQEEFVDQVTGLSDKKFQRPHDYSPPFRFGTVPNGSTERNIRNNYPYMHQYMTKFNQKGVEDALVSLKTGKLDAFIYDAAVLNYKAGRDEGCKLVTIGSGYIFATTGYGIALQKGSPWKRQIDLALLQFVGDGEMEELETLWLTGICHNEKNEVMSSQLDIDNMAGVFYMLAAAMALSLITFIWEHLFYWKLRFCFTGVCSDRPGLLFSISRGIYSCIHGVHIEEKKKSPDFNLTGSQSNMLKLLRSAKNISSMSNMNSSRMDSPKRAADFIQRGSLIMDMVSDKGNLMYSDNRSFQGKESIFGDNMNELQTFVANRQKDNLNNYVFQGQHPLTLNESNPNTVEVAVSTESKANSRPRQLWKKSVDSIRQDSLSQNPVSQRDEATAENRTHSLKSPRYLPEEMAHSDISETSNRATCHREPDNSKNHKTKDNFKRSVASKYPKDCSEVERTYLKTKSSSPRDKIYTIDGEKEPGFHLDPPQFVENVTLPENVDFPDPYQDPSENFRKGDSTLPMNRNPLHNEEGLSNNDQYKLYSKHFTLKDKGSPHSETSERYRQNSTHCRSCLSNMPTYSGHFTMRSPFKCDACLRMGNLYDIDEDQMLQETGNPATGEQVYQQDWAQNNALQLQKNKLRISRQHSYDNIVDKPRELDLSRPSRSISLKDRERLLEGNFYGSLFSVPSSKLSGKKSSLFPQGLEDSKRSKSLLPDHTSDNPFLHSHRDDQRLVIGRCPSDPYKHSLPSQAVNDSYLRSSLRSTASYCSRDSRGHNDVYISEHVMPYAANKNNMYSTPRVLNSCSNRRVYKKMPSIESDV
T2 sequence (Q12879 23-1464, other chains not shown): as above
T4 sequence (Q13224 27-1484, other chains not shown): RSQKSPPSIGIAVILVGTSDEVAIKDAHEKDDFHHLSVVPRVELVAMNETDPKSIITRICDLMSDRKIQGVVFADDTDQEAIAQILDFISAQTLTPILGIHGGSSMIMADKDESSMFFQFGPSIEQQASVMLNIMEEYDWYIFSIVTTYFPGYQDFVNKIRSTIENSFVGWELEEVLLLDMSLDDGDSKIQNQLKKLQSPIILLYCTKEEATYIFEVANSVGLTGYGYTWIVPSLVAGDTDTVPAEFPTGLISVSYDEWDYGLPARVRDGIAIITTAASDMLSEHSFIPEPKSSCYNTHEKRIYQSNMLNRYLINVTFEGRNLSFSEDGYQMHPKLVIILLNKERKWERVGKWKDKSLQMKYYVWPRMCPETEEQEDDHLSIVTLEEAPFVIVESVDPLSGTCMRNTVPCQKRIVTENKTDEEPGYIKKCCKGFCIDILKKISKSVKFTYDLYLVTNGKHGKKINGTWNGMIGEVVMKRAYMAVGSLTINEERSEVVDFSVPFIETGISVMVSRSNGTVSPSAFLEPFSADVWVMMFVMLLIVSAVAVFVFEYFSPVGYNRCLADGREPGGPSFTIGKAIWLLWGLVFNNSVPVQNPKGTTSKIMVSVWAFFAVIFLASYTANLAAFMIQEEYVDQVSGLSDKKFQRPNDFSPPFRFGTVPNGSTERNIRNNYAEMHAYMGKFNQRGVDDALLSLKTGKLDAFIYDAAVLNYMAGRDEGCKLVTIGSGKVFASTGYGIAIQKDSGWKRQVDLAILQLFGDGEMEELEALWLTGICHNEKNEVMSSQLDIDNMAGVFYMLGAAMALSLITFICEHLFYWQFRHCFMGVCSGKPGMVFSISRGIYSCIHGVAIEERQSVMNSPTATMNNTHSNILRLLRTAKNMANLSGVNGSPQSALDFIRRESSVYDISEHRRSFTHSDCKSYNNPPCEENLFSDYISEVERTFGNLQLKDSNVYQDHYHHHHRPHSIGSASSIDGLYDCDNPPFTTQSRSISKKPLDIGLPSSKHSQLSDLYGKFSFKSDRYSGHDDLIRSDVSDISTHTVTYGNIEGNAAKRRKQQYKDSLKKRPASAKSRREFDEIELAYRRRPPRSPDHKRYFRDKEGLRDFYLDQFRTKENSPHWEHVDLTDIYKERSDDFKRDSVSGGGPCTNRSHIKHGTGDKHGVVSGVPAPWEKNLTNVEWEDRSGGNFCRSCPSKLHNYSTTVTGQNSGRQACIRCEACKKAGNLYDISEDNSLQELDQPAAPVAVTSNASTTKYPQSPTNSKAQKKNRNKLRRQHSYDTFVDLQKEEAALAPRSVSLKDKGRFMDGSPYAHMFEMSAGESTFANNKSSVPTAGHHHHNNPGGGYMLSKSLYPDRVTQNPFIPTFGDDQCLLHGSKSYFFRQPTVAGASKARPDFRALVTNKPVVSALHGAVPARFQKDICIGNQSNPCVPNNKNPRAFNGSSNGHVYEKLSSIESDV

CC1CC(=O)N(c2ccc(F)cc2)C12CN(Cc1ccccc1)C2=O (single isomer, unassigned) [BX, 2-benzyl-5-(4-fluorophenyl)-8-methyl-2,5-diazaspiro[3.4]octane-1,6-dione]
Emax [1]: 0% | NMDAR2A B: log EC50 [2]: − | EC50 [3]: < 1 nM | Emax [3]: < 100%

CC1CC(=O)N(c2ccc(F)cc2)C12CN(CC(N)=O)C2=O (single isomer, unassigned) [CF, 2-(5-(4-fluorophenyl)-8-methyl-1,6-dioxo-2,5-diazaspiro[3.4]octan-2-yl)acetamide]
Emax [1]: 0% | NMDAR2A B: log EC50 [2]: − | EC50 [3]: < 1 nM | Emax [3]: < 100%

CC1C(N)C(=O)N(C)C12CN(Cc1ccccc1)C2=O (single isomer, unassigned) [CG, 7-amino-2-benzyl-5,8-dimethyl-2,5-diazaspiro[3.4]octane-1,6-dione]
Emax [1]: 0% | NMDAR2A B: log EC50 [2]: − | EC50 [3]: < 1 nM | Emax [3]: < 100%

COc1ccc(CN2CC3(CCN(C)C(=O)C3)C2=O)cc1 (single isomer, unassigned) [CJ, 2-(4-methoxybenzyl)-7-methyl-2,7-diazaspiro[3.5]nonane-1,6-dione]
NMDAR2A A: % maximal [3H]MK-801 binding relative to 1 mM glycine [2]: + (<100%=+) | EC50 [2]: < 1 nM | NMDAR2B A: % maximal [3H]MK-801 binding relative to 1 mM glycine [4]: ++ (>100%=++) | EC50 [4]: < 1 nM

COc1ccc(CN2CC3(CCNC(=S)C3)C2=O)cc1 (single isomer, unassigned) [CN, 2-(4-methoxybenzyl)-6-thioxo-2,7-diazaspiro[3.5]nonan-1-one]
EC50 [1]: < 1 nM | Emax [1]: < 100% | EC50 [3]: < 1 nM | Emax [3]: < 100%

COc1ccc(CN2CC3(CCNC(=S)C3)C2=S)cc1 (single isomer, unassigned) [CO, 2-(4-methoxybenzyl)-2,7-diazaspiro[3.5]nonane-1,6-dithione]
EC50 [1]: < 1 nM | Emax [1]: < 100% | NMDAR2B A: % maximal [3H]MK-801 binding relative to 1 mM glycine [4]: − (−=0) | NMDAR2B B: log EC50 [4]: −

COc1ccc(CN2CC3(CCN(CC(C)C)C(=O)C3)C2=O)cc1 (single isomer, unassigned) [CS, 7-isobutyl-2-(4-methoxybenzyl)-2,7-diazaspiro[3.5]nonane-1,6-dione]
EC50 [1]: < 1 nM | Emax [1]: < 100% | EC50 [3]: < 1 nM | NMDAR2B A: % maximal [3H]MK-801 binding relative to 1 mM glycine [4]: ++ (>100%=++)

COc1ccc(CN2CC3(CCN(CC(C)C)C(=O)C3)C2=O)cc1 (single isomer, unassigned) [CT, 7-isobutyl-2-(4-methoxybenzyl)-2,7-diazaspiro[3.5]nonane-1,6-dione]
NMDAR2A A: % maximal [3H]MK-801 binding relative to 1 mM glycine [2]: + (<100%=+) | EC50 [2]: < 1 nM | NMDAR2B A: % maximal [3H]MK-801 binding relative to 1 mM glycine [4]: − (−=0) | NMDAR2B B: log EC50 [4]: −

O=C1CC2(CCN1)CN(Cc1ccccc1)C2=O (single isomer, unassigned) [CU, 2-benzyl-2,7-diazaspiro[3.5]nonane-1,6-dione]
NMDAR2A A: % maximal [3H]MK-801 binding relative to 1 mM glycine [2]: − (−=0) | NMDAR2A B: log EC50 [2]: − | EC50 [3]: < 1 nM | Emax [3]: < 100%

CN1CCC2(CC1=O)CN(Cc1ccccc1)C2=O (single isomer, unassigned) [CW, 2-benzyl-7-methyl-2,7-diazaspiro[3.5]nonane-1,6-dione]
EC50 [1]: < 1 nM | Emax [1]: < 100% | EC50 [3]: < 1 nM | Emax [3]: > 100%

CN1CCC2(CC1=O)CN(Cc1ccccc1)C2=O (single isomer, unassigned) [CX, 2-benzyl-7-methyl-2,7-diazaspiro[3.5]nonane-1,6-dione]
NMDAR2A A: % maximal [3H]MK-801 binding relative to 1 mM glycine [2]: + (<100%=+) | EC50 [2]: < 1 nM | NMDAR2B A: % maximal [3H]MK-801 binding relative to 1 mM glycine [4]: + (<100%=+) | EC50 [4]: < 1 nM

CCN1CCC2(CC1=O)CN(Cc1ccccc1)C2=O (single isomer, unassigned) [CY, 2-benzyl-7-ethyl-2,7-diazaspiro[3.5]nonane-1,6-dione]
EC50 [1]: < 1 nM | Emax [1]: < 100% | Emax [3]: 0% | NMDAR2B B: log EC50 [4]: −

CCN1CCC2(CC1=O)CN(Cc1ccccc1)C2=O (single isomer, unassigned) [CZ, 2-benzyl-7-ethyl-2,7-diazaspiro[3.5]nonane-1,6-dione]
EC50 [1]: ≥ 1 nM | NMDAR2B B: log EC50 [4]: −

CNC(=O)[C@H]([C@@H](C)O)N1CC2(CCNC(=O)C2)C1=O (single isomer, unassigned) [DB]
Emax [1]: 0% | NMDAR2A B: log EC50 [2]: − | EC50 [3]: < 1 nM | Emax [3]: > 100%

NC(=O)CN1CC2(CCNC(=O)C2)C1=O (single isomer, unassigned) [DC, 2-(1,6-dioxo-2,7-diazaspiro[3.5]nonan-2-yl)acetamide]
EC50 [1]: < 1 nM | NMDAR2A A: % maximal [3H]MK-801 binding relative to 1 mM glycine [2]: + (<100%=+) | EC50 [3]: < 1 nM | Emax [3]: < 100%

NC(=O)CN1CC2(CCNC(=O)C2)C1=O (single isomer, unassigned) [DD, 2-(1,6-dioxo-2,7-diazaspiro[3.5]nonan-2-yl)acetamide]
NMDAR2A A: % maximal [3H]MK-801 binding relative to 1 mM glycine [2]: − (−=0) | NMDAR2A B: log EC50 [2]: − | NMDAR2B A: % maximal [3H]MK-801 binding relative to 1 mM glycine [4]: + (<100%=+) | EC50 [4]: < 1 nM

CC(C)CN1CC2(CCNC(=O)C2)C1=O (single isomer, unassigned) [DE, 2-isobutyl-2,7-diazaspiro[3.5]nonane-1,6-dione]
EC50 [1]: < 1 nM | Emax [1]: < 100% | EC50 [3]: < 1 nM | Emax [3]: < 100%

CC(C)CN1CC2(CCNC(=O)C2)C1=O (single isomer, unassigned) [DF, 2-isobutyl-2,7-diazaspiro[3.5]nonane-1,6-dione]
EC50 [2]: < 1 nM | EC50 [4]: < 1 nM

CN1CC2(CCNC(=O)C2)C1=O (single isomer, unassigned) [DG, 2-methyl-2,7-diazaspiro[3.5]nonane-1,6-dione]
EC50 [1]: < 1 nM | Emax [1]: < 100% | NMDAR2B A: % maximal [3H]MK-801 binding relative to 1 mM glycine [4]: − (−=0) | NMDAR2B B: log EC50 [4]: −

CC1CC(=O)N(C)C12CN(CC(N)=O)C2=O (single isomer, unassigned) [DI, 2-(5,8-dimethyl-1,6-dioxo-2,5-diazaspiro[3.4]octan-2-yl)acetamide]
EC50 [1]: < 1 nM | NMDAR2A A: % maximal [3H]MK-801 binding relative to 1 mM glycine [2]: + (<100%=+) | EC50 [3]: < 1 nM | Emax [3]: < 100%

CC1CC(=O)N(C)C12CN(CC(N)=O)C2=O (single isomer, unassigned) [DJ, 2-(5,8-dimethyl-1,6-dioxo-2,5-diazaspiro[3.4]octan-2-yl)acetamide]
NMDAR2A A: % maximal [3H]MK-801 binding relative to 1 mM glycine [2]: − (−=0) | NMDAR2A B: log EC50 [2]: − | NMDAR2B A: % maximal [3H]MK-801 binding relative to 1 mM glycine [4]: + (<100%=+) | EC50 [4]: < 1 nM

CC1CC(=O)N(c2ccc(F)cc2)C12CN([C@H](C(N)=O)[C@@H](C)O)C2=O (single isomer, unassigned) [DK]
EC50 [1]: ≥ 1 nM | Emax [1]: > 100% | Emax [3]: 0% | NMDAR2B B: log EC50 [4]: −

CC1C(O)C(=O)N(C)C12CN(Cc1ccccc1)C2=O (single isomer, unassigned) [DM, 2-benzyl-7-hydroxy-5,8-dimethyl-2,5-diazaspiro[3.4]octane-1,6-dione]
EC50 [1]: ≥ 1 nM | Emax [1]: < 100% | Emax [3]: 0% | NMDAR2B B: log EC50 [4]: −

CC1C(O)C(=O)N(C)C12CN(Cc1ccccc1)C2=O (single isomer, unassigned) [DN, 2-benzyl-7-hydroxy-5,8-dimethyl-2,5-diazaspiro[3.4]octane-1,6-dione]
EC50 [1]: < 1 nM | NMDAR2B B: log EC50 [4]: −
